{
  "source": "patent US20030143291A1",
  "about": "“Herbal compositions and methods for diabetes and weight loss management” (priority 2002, published 2003)",
  "origin": "cited, not measured here",
  "key": {"[1]": {"test_system": "Methicillin-resistant s. aureus"}},
  "data": [
    {"compound": "CC(C)C1=C2CCC(COC(=O)c3ccc(O)cc3)=CCC2(C)CC1", "note": "(centres unmarked) [Compound 6, 14-(4′-hydroxybenzoyloxy)dauc-4,8-diene]", "values": [
      {"measurement": "antimicrobial activity against Staphylococcus aures", "setting": "Staphylococcus aures", "result": "antimicrobial activity"},
      {"measurement": "antimicrobial activity against Methicillin-resistant s. aureus", "setting": "[1]", "result": "antimicrobial activity"}
    ]}
  ]
}
